# Key:
# bedstraw = assay: Test B pre/postemergence bedstraw; type: in vivo, Galium aparine; conditions: Postemergence, Rate 62 g/ha; scale 0 to 10, 0 is no effect, 10 is complete control
# Outline: (§1)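 Response is a visual 0-to-10 score relative to untreated plants, where 0 means no effect and 10 means complete control, taken twelve to sixteen days after application. Treatments went onto soil at planting and onto foliage of 1- to 4-leaf plants, using a surfactant-containing non-phytotoxic solvent.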
# blackgrass = assay: Test B pre/postemergence blackgrass; type: in vivo, Alopecurus myosuroides
# Outline: as §1
# surinam grass = assay: Test B pre/postemergence surinam grass; type: in vivo, Brachiaria decumbens
# Outline: as §1
# cocklebur = assay: Test B pre/postemergence cocklebur; type: in vivo, Xanthium strumarium
# Outline: as §1
# corn = assay: Test B pre/postemergence corn; type: in vivo, Zea mays
# Outline: as §1
# giant foxtail = assay: Test B pre/postemergence giant foxtail; type: in vivo, Setaria faberii
# Outline: as §1
# morningglory = assay: Test B pre/postemergence morningglory; type: in vivo, Ipomoea hederacea
# Outline: as §1
# pigweed = assay: Test B pre/postemergence pigweed; type: in vivo, Amaranthus retroflexus
# Outline: as §1
# rape = assay: Test B pre/postemergence rape; type: in vivo, Brassica napus
# Outline: as §1
# soybean = assay: Test B pre/postemergence soybean; type: in vivo, Glycine max
# Outline: as §1
# sugar beet = assay: Test B pre/postemergence sugar beet; type: in vivo, Beta vulgaris
# Outline: as §1
# velvetleaf = assay: Test B pre/postemergence velvetleaf; type: in vivo, Abutilon theophrasti
# Outline: as §1
# purple nutsedge = assay: Test B pre/postemergence purple nutsedge; type: in vivo, Cyperus rotundus
# Outline: as §1
# smallflower flatsedge = assay: Test B flood test smallflower flatsedge; type: in vivo, Cyperus difformis
# Outline: (§2)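 Plants were grown to the 2-leaf stage before treatment with test chemical, then held in a greenhouse for twelve to sixteen days. Injury was visually rated against untreated controls on a 0–10 scale, where 0 is no effect and 10 is complete control.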
# duck salad = assay: Test B flood test duck salad; type: in vivo, Heteranthera limosa
# Outline: as §2
# bamyardgrass = assay: Test B flood test barnyardgrass; type: in vivo, Echinochloa crus-galli
# Outline: as §2
# [1] = Postemergence, Rate 62 g/ha, scale 0 to 10, 0 is no effect, 10 is complete control
# [2] = Postemergence, Rate 125 g/ha, scale of 0 to 10 where 0 is no effect and 10 is complete control
# [3] = Postemergence, Rate 250 g/ha, scale of 0 to 10, 0 is no effect, 10 is complete control
# [4] = Preemergence, Rate 62 g/ha, scale of 0 to 10 where 0 is no effect and 10 is complete control
# [5] = Preemergence, Rate 125 g/ha, scale of 0 to 10 where 0 is no effect and 10 is complete control
# [6] = Preemergence, Rate 250 g/ha, scale 0 to 10 (0 no effect, 10 complete control)
# [7] = Preemergence, Rate 500 g/ha, scale of 0 to 10 where 0 is no effect and 10 is complete control
# [8] = Rate 500 g/ha, Postemergence, scale 0 to 10, 0 is no effect, 10 is complete control
# [9] = Rate 62 g/ha, flood test species, Pre-emergence, visual evaluation after twelve to sixteen days
# [10] = Rate 125 g/ha, under heading Pre-emergence, flood test species, visual evaluation after twelve to sixteen days
# [11] = Rate 250 g/ha, Pre-emergence (flood test species), scale 0 to 10, 0 is no effect, 10 is complete control
# [12] = Rate 500 g/ha, Pre-emergence section of Table B, 0 to 10 scale (0 no effect, 10 complete control)
compound,measurement,setting,value
CC[C@H](C)n1c(=O)on(C(=O)N(c2ccc(Cl)cc2)C(C)C)c1=O [Compound 664],"Plant response rating, Bedstraw",bedstraw,0
same,"Plant response rating, Blackgrass",blackgrass; [1],4
same,Blackgrass plant response rating,blackgrass; [2],7
same,Blackgrass plant response rating,blackgrass; [3],9
same,Blackgrass plant response rating,blackgrass; [4],5
same,Blackgrass plant response rating,blackgrass; [5],6
same,"Plant response rating, Blackgrass",blackgrass; [6],6
same,"Plant response rating, Blackgrass",blackgrass; [7],8
same,Blackgrass plant response rating,blackgrass; [8],9
same,"Plant response rating, B. signalgrass",surinam grass; [1],0
same,"Plant response rating, B. signalgrass",surinam grass; [2],0
same,B. signalgrass plant response rating,surinam grass; [3],4
same,B. signalgrass plant response rating,surinam grass; [4],1
same,B. signalgrass plant response rating,surinam grass; [5],5
same,"Plant response rating, B. signalgrass",surinam grass; [6],5
same,"Plant response rating, B. signalgrass",surinam grass; [7],8
same,B. signalgrass plant response rating,surinam grass; [8],7
same,"Plant response rating, Cocklebur",cocklebur; [1],0
same,Cocklebur plant response rating,cocklebur; [2],0
same,Cocklebur plant response rating,cocklebur; [3],2
same,Cocklebur plant response rating,cocklebur; [4],0
same,Cocklebur plant response rating,cocklebur; [5],0
same,"Plant response rating, Cocklebur",cocklebur; [6],0
same,"Plant response rating, Cocklebur",cocklebur; [7],3
same,Cocklebur plant response rating,cocklebur; [8],6
same,"Plant response rating, Corn",corn; [1],0
same,Corn plant response rating,corn; [2],0
same,Corn plant response rating,corn; [3],0
same,Corn plant response rating,corn; [4],0
same,Corn plant response rating,corn; [5],0
same,"Plant response rating, Corn",corn; [6],0
same,"Plant response rating, Corn",corn; [7],0
same,Corn plant response rating,corn; [8],0
same,"Plant response rating, Giant foxtail",giant foxtail; [1],2
same,Giant foxtail plant response rating,giant foxtail; [2],6
same,Giant foxtail plant response rating,giant foxtail; [3],9
same,Giant foxtail plant response rating,giant foxtail; [4],9
same,Giant foxtail plant response rating,giant foxtail; [5],10
same,"Plant response rating, Giant foxtail",giant foxtail; [6],10
same,"Plant response rating, Giant foxtail",giant foxtail; [7],10
same,Giant foxtail plant response rating,giant foxtail; [8],9
same,"Plant response rating, Morningglory",morningglory; [1],0
same,Morningglory plant response rating,morningglory; [2],2
same,Morningglory plant response rating,morningglory; [3],9
same,Morningglory plant response rating,morningglory; [4],0
same,Morningglory plant response rating,morningglory; [5],0
same,"Plant response rating, Morningglory",morningglory; [6],0
same,"Plant response rating, Morningglory",morningglory; [7],4
same,Morningglory plant response rating,morningglory; [8],10
same,"Plant response rating, Redroot pigweed",pigweed; [1],0
same,Redroot pigweed plant response rating,pigweed; [2],2
same,Redroot pigweed plant response rating,pigweed; [4],2
same,Redroot pigweed plant response rating,pigweed; [5],7
same,"Plant response rating, Redroot pigweed",pigweed; [6],7
same,"Plant response rating, Redroot pigweed",pigweed; [7],10
same,Redroot pigweed plant response rating,pigweed; [8],6
same,"Plant response rating, Rape",rape; [1],0
same,Rape plant response rating,rape; [2],0
same,Rape plant response rating,rape; [4],0
same,Rape plant response rating,rape; [5],1
same,"Plant response rating, Rape",rape; [6],1
same,"Plant response rating, Rape",rape; [7],6
same,Rape plant response rating,rape; [8],3
same,"Plant response rating, Soybean",soybean; [1],3
same,Soybean plant response rating,soybean; [2],4
same,Soybean plant response rating,soybean; [4],0
same,Soybean plant response rating,soybean; [5],0
same,"Plant response rating, Soybean",soybean; [6],0
same,"Plant response rating, Soybean",soybean; [7],0
same,"Plant response rating, Sugarbeets",sugar beet; [1],0
same,Sugarbeets plant response rating,sugar beet; [2],0
same,Sugarbeets plant response rating,sugar beet; [4],0
same,Sugarbeets plant response rating,sugar beet; [5],0
same,"Plant response rating, Sugarbeets",sugar beet; [6],0
same,"Plant response rating, Sugarbeets",sugar beet; [7],5
same,Sugarbeets plant response rating,sugar beet; [8],0
same,"Plant response rating, Velvetleaf",velvetleaf; [1],0
same,Velvetleaf plant response rating,velvetleaf; [2],0
same,Velvetleaf plant response rating,velvetleaf; [4],0
same,Velvetleaf plant response rating,velvetleaf; [5],0
same,"Plant response rating, Velvetleaf",velvetleaf; [6],5
same,"Plant response rating, Velvetleaf",velvetleaf; [7],5
same,Velvetleaf plant response rating,velvetleaf; [8],6
same,"Plant response rating, Nutsedge",purple nutsedge; [1],0
same,Nutsedge plant response rating,purple nutsedge; [2],0
same,Nutsedge plant response rating,purple nutsedge; [4],0
same,Nutsedge plant response rating,purple nutsedge; [5],0
same,"Plant response rating, Nutsedge",purple nutsedge; [6],0
same,"Plant response rating, Nutsedge",purple nutsedge; [7],0
same,Nutsedge plant response rating,purple nutsedge; [8],0
same,"Plant response rating, S. Flatsedge (0 to 10 scale, 0 is no effect, 10 is complete control)",smallflower flatsedge; [9],0
same,"S. Flatsedge plant response rating (0 to 10 scale, 0 is no effect, 10 is complete control)",smallflower flatsedge; [10],0
same,S. Flatsedge plant response rating,smallflower flatsedge; [11],0
same,S. Flatsedge plant response rating,smallflower flatsedge; [12],0
same,"Plant response rating, Ducksalad (0 to 10 scale, 0 is no effect, 10 is complete control)",duck salad; [9],0
same,"Ducksalad plant response rating (0 to 10 scale, 0 is no effect, 10 is complete control)",duck salad; [10],0
same,Ducksalad plant response rating,duck salad; [11],0
same,Ducksalad plant response rating,duck salad; [12],0
same,"Plant response rating, Barnyardgrass (0 to 10 scale, 0 is no effect, 10 is complete control)",bamyardgrass; [9],0
same,"Barnyardgrass plant response rating (0 to 10 scale, 0 is no effect, 10 is complete control)",bamyardgrass; [10],0
same,Barnyardgrass plant response rating,bamyardgrass; [11],0
same,Barnyardgrass plant response rating,bamyardgrass; [12],0

# From patent publication US6737383B1, “Herbicidal oxadiazolidines” (priority 1999, dated 2004)
